# Results from US9663473B2 (Actelion Pharmaceuticals Ltd, priority 2013, dated 2017).
# Structures can show the parent of a compound that is named as a salt.
# Target: T1, recombinant human ALX receptor (Homo sapiens, UniProt P25090)
# T1 construct: expressed in transfected cells; host or cells: HEK293 (HEK293-hALXR-Gα16)
# T1 sequence (P25090 1-351): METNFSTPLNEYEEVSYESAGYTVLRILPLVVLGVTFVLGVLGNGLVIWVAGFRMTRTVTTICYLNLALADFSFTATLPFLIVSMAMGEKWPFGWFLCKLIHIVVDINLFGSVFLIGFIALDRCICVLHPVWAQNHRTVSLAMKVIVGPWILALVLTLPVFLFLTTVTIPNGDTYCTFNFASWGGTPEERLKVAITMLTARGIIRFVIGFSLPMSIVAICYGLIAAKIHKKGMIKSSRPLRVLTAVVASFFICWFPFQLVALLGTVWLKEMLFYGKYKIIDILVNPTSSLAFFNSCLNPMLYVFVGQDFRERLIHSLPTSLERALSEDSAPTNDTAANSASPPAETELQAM
# Assay: Intracellular calcium measurements (FLIPR), ALX receptor agonistic activity
# Type: cell-based
# Details: HEK293-hALXR-Gα16 cells, Fluo-4 calcium signal, normalized to WKYMVm 10 nM
# Method in brief: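 HEK293 cells co-expressing human ALX receptor and Gα16 were loaded with 1 μM Fluo-4 AM for 60 min at 37° C., then exposed to serially diluted compounds on FLIPR Tetra. Peak fluorescence above baseline (ex 488/em 540 nm) was normalized to 10 nM WKYMVm as high control.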
row,SMILES,EC50 [nM]
1,"COc1ccc(C[C@@H](NC(=O)NC(CCO)c2ccccc2)c2nc3ccccc3[nH]2)cc1 (stereo partly drawn) [Example 343, 1-((R)-1-(1H-Benzo[d]imidazol-2-yl)-2-(4-methoxyphenyl)ethyl)-3-(3-hydroxy-1-phenylpropyl)urea]",40
2,"CC[C@@H](NC(=O)N[C@H](Cc1ccc(OC)cc1)c1nc2ccccc2[nH]1)c1ccccc1 [Example 344, 1-((R)-1-(1H-Benzo[d]imidazol-2-yl)-2-(4-methoxyphenyl)ethyl)-3-((R)-1-phenylpropyl)urea]",167
3,"CC[C@H](NC(=O)N[C@H](Cc1ccc(OC)cc1)c1nc2ccccc2[nH]1)c1ccccc1 [Example 345, 1-((R)-1-(1H-Benzo[d]imidazol-2-yl)-2-(4-methoxyphenyl)ethyl)-3-((S)-1-phenylpropyl)urea]",127
4,"COc1ccc(C[C@@H](NC(=O)N[C@H](C)c2ccccc2)c2nc3ccccc3[nH]2)cc1 [Example 349, 1-((R)-1-(1H-Benzo[d]imidazol-2-yl)-2-(4-methoxyphenyl)ethyl)-3-((R)-1-phenylethyl)urea]",287
5,"COc1ccc(C[C@@H](NC(=O)NC(C)(C)c2ccccc2)c2nc3ccccc3[nH]2)cc1 [Example 350, (R)-1-(1-(1H-Benzo[d]imidazol-2-yl)-2-(4-methoxyphenyl)ethyl)-3-(2-phenylpropan-2-yl)urea]",288
6,"COc1ccc(C[C@@H](NC(=O)NC2(c3ccccc3)CC2)c2nc3ccccc3[nH]2)cc1 [Example 351, (R)-1-(1-(1H-Benzo[d]imidazol-2-yl)-2-(4-methoxyphenyl)ethyl)-3-(1-phenylcyclopropyl)urea]",350
7,"COc1ccc(C[C@@H](NC(=O)NC2(c3ccc(Cl)cc3)CC2)c2nc3ccccc3[nH]2)cc1 [Example 355, (R)-1-(1-(1H-Benzo[d]imidazol-2-yl)-2-(4-methoxyphenyl)ethyl)-3-(1-(4-chlorophenyl)cyclopropyl)urea]",157
8,"COc1ccc(C[C@@H](NC(=O)NC2(c3ccc(C(F)(F)F)cc3)CC2)c2nc3ccccc3[nH]2)cc1 [Example 358, (R)-1-(1-(1H-Benzo[d]imidazol-2-yl)-2-(4-methoxyphenyl)ethyl)-3-(1-(4-(trifluoromethyl)phenyl)cyclopropyl)urea]",176
9,"O=C(N[C@H](Cc1ccc(CF)cc1)c1nc2ccccc2[nH]1)N[C@H]1CC[C@H](O)CC1 [Example 364, 1-((R)-1-(1H-Benzo[d]imidazol-2-yl)-2-(4-(fluoromethyl)phenyl)ethyl)-3-(trans-4-hydroxycyclohexyl)urea]",10
10,"COc1ccc(C[C@@H](NC(=O)N[C@H](CC(=O)OC(C)(C)C)c2ccccc2)c2nc3ccccc3[nH]2)cc1 [Example 378, (R)-tert-Butyl 3-(3-((R)-1-(1H-benzo[d]imidazol-2-yl)-2-(4-methoxyphenyl)ethyl)ureido)-3-phenylpropanoate]",1470
11,"COc1ccc(C[C@@H](NC(=O)NC(C)c2ccc(OC(F)(F)F)cc2)c2nc3ccccc3[nH]2)cc1 (stereo partly drawn) [Example 381, 1-((R)-1-(1H-Benzo[d]imidazol-2-yl)-2-(4-methoxyphenyl)ethyl)-3-(1-(4-(trifluoromethoxy)phenyl)ethyl)urea]",1170
12,"COc1ccc(C[C@@H](NC(=O)N2CC3CC2CN3C(=O)OC(C)(C)C)c2nc3ccccc3[nH]2)cc1 (stereo partly drawn) [Example 382, tert-Butyl 5-(((R)-1-(1H-benzo[d]imidazol-2-yl)-2-(4-methoxyphenyl)ethyl)carbamoyl)-2,5-diazabicyclo[2.2.1]heptane-2-carboxylate]",1900
13,"COc1ccc(C[C@@H](NC(=O)NC(C)c2ccncn2)c2nc3ccccc3[nH]2)cc1 (stereo partly drawn) [Example 386, 1-((R)-1-(1H-Benzo[d]imidazol-2-yl)-2-(4-methoxyphenyl)ethyl)-3-(1-(pyrimidin-4-yl)ethyl)urea]",1240
14,"COc1ccc(C[C@@H](NC(=O)NC2(c3ccccc3Cl)CC2)c2nc3ccccc3[nH]2)cc1 [Example 389, (R)-1-(1-(1H-Benzo[d]imidazol-2-yl)-2-(4-methoxyphenyl)ethyl)-3-(1-(2-chlorophenyl)cyclopropyl)urea]",1170
15,"COc1ccc(C[C@@H](NC(=O)NCCN2CCN(C(C)=O)CC2)c2nc3ccccc3[nH]2)cc1 [Example 390, (R)-1-(1-(1H-Benzo[d]imidazol-2-yl)-2-(4-methoxyphenyl)ethyl)-3-(2-(4-acetylpiperazin-1-yl)ethyl)urea]",2680
16,"COc1ccc(CC(NC(=O)NCCN2CCCC2)c2nc3ccccc3[nH]2)cc1 (stereo not drawn) [Example 391, 1-(1-(1H-Benzo[d]imidazol-2-yl)-2-(4-methoxyphenyl)ethyl)-3-(2-(pyrrolidin-1-yl)ethyl)urea]",2720
17,"COc1ccc(C[C@@H](NC(=O)NCc2ccccc2)c2nc3ccccc3[nH]2)cc1 [Example 392, (R)-1-(1-(1H-Benzo[d]imidazol-2-yl)-2-(4-methoxyphenyl)ethyl)-3-benzylurea]",2410

# Next, values leading:
row,EC50 [nM],SMILES
1,277,"COC(=O)c1ccc(C2(NC(=O)N[C@H](Cc3ccc(OC)cc3)c3nc4ccccc4[nH]3)CC2)cc1 [Example 342, (R)-Methyl 4-(1-(3-(1-(1H-benzo[d]imidazol-2-yl)-2-(4-methoxyphenyl)ethyl)ureido)cyclopropyl)benzoate]"
2,56,"COc1ccc(C[C@@H](NC(=O)NC2CCCc3c(OC)cccc32)c2nc3ccccc3[nH]2)cc1 (stereo partly drawn) [Example 346, 1-((R)-1-(1H-Benzo[d]imidazol-2-yl)-2-(4-methoxyphenyl)ethyl)-3-(5-methoxy-1,2,3,4-tetrahydronaphthalen-1-yl)urea]"
3,365,"COc1ccc(C[C@@H](NC(=O)N[C@@H](C)C2CCCCC2)c2nc3ccccc3[nH]2)cc1 [Example 347, 1-((R)-1-(1H-Benzo[d]imidazol-2-yl)-2-(4-methoxyphenyl)ethyl)-3-((S)-1-cyclohexylethyl)urea]"
4,26,"COc1ccc(C[C@@H](NC(=O)NC2CCc3cc(OC)c(OC)cc32)c2nc3ccccc3[nH]2)cc1 (stereo partly drawn) [Example 348, 1-((R)-1-(1H-Benzo[d]imidazol-2-yl)-2-(4-methoxyphenyl)ethyl)-3-(5,6-dimethoxy-2,3-dihydro-1H-inden-1-yl)urea]"
5,372,"COc1ccc(C[C@@H](NC(=O)NC(C)(C)c2ccc(Cl)cc2)c2nc3ccccc3[nH]2)cc1 [Example 352, (R)-1-(1-(1H-Benzo[d]imidazol-2-yl)-2-(4-methoxyphenyl)ethyl)-3-(2-(4-chlorophenyl)propan-2-yl)urea]"
6,461,"COc1ccc(C[C@@H](NC(=O)NC(C)(C)c2cccc(C)c2)c2nc3ccccc3[nH]2)cc1 [Example 353, (R)-1-(1-(1H-Benzo[d]imidazol-2-yl)-2-(4-methoxyphenyl)ethyl)-3-(2-(m-tolyl)propan-2-yl)urea]"
7,144,"COc1ccc(C[C@@H](NC(=O)NC2(c3cccc(C)c3)CC2)c2nc3ccccc3[nH]2)cc1 [Example 354, (R)-1-(1-(1H-Benzo[d]imidazol-2-yl)-2-(4-methoxyphenyl)ethyl)-3-(1-(m-tolyl)cyclopropyl)urea]"
8,561,"COc1ccc(CC(NC(=O)N[C@@H](C)c2cccc(Cl)c2)c2nc3ccccc3[nH]2)cc1 (stereo partly drawn) [Example 360, 1-(1-(1H-Benzo[d]imidazol-2-yl)-2-(4-methoxyphenyl)ethyl)-3-((S)-1-(3-chlorophenyl)ethyl)urea]"
9,1630,"COc1ccc(CC(NC(=O)NCc2cc(C(C)C)on2)c2nc3ccccc3[nH]2)cc1 (stereo not drawn) [Example 377, 1-(1-(1H-Benzo[d]imidazol-2-yl)-2-(4-methoxyphenyl)ethyl)-3-((5-isopropylisoxazol-3-yl)methyl)urea]"
10,1090,"COc1ccc(C[C@@H](NC(=O)Nc2ccon2)c2nc3ccccc3[nH]2)cc1 [Example 379, (R)-1-(1-(1H-Benzo[d]imidazol-2-yl)-2-(4-methoxyphenyl)ethyl)-3-(isoxazol-3-yl)urea hydrochloride]"
11,1090,"COc1ccc(CC(NC(=O)NCc2cc(C3CC3)on2)c2nc3ccccc3[nH]2)cc1 (stereo not drawn) [Example 380, 1-(1-(1H-Benzo[d]imidazol-2-yl)-2-(4-methoxyphenyl)ethyl)-3-((5-cyclopropylisoxazol-3-yl)methyl)urea]"
12,1780,"COc1ccc(C[C@@H](NC(=O)N[C@H](C)C2CCCCC2)c2nc3ccccc3[nH]2)cc1 [Example 383, 1-((R)-1-(1H-Benzo[d]imidazol-2-yl)-2-(4-methoxyphenyl)ethyl)-3-((R)-1-cyclohexylethyl)urea]"
13,1220,"COc1ccc(CC(NC(=O)NCc2ccon2)c2nc3ccccc3[nH]2)cc1 (stereo not drawn) [Example 384, 1-(1-(1H-Benzo[d]imidazol-2-yl)-2-(4-methoxyphenyl)ethyl)-3-(isoxazol-3-ylmethyl)urea]"
14,1030,"COc1ccc(CC(NC(=O)NCc2cccnc2OC)c2nc3ccccc3[nH]2)cc1 (stereo not drawn) [Example 385, 1-(1-(1H-Benzo[d]imidazol-2-yl)-2-(4-methoxyphenyl)ethyl)-3-((2-methoxypyridin-3-yl)methyl)urea]"
15,1370,"COc1ccc(CNC(=O)N[C@H](Cc2ccc(OC)cc2)c2nc3ccccc3[nH]2)cc1 [Example 387, (R)-1-(1-(1H-Benzo[d]imidazol-2-yl)-2-(4-methoxyphenyl)ethyl)-3-(4-methoxybenzyl)urea]"
16,1070,"COc1ccc(CC(NC(=O)NCCCN(C)C)c2nc3ccccc3[nH]2)cc1 (stereo not drawn) [Example 388, 1-(1-(1H-Benzo[d]imidazol-2-yl)-2-(4-methoxyphenyl)ethyl)-3-(3-(dimethylamino)propyl)urea]"
